#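 How tested: cells in 96-well plates exposed to compound for 48 hours at five concentrations. TGI is the concentration that stops growth completely.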
# How the values were obtained:
# Assay in all cases: inhibition of tumour cell growth, NCI panel, 48 h
# [1] = tested on: MALME-3M melanoma
# [2] = tested on: LXFL 529 NSCLC
# [3] = tested on: SK-MEL-2 melanoma
# [4] = tested on: OVCAR-5 ovarian
# [5] = tested on: UACC-257 melanoma
# [6] = tested on: SNB-75 CNS
# [7] = tested on: SN12C renal
# [8] = tested on: LOX IMVI melanoma
# [9] = tested on: NCI-H522 lung
# [10] = tested on: UACC-62 melanoma
# [11] = tested on: SF-539 CNS
# [12] = tested on: CCRF-CEM leukemia
# [13] = tested on: EKVX NSCLC
# [14] = tested on: SK-MEL-5 melanoma
# [15] = tested on: HOP-18 NSCLC
# [16] = tested on: HOP-92 NSCLC
# [17] = tested on: XF 498 CNS
# [18] = tested on: NCI-H23 lung
# [19] = tested on: SK-MEL-28 melanoma
# [20] = tested on: DMS 273 small cell lung
# [21] = tested on: RXF 393 renal
# [22] = tested on: IGROV1 ovarian
# [23] = tested on: MOLT-4 leukemia
# [24] = tested on: OVCAR-3 ovarian
# [25] = tested on: ACHN renal
# [26] = tested on: KM12 colon
# [27] = tested on: HCC-2998 colon
# [28] = tested on: A498 renal
# [29] = tested on: SNB-19 CNS
# [30] = tested on: NCI-H226 lung
# [31] = tested on: SF-295 CNS
# [32] = tested on: SF-268 CNS
# [33] = tested on: HT29 colon
# [34] = tested on: DLD-1 colon
# [35] = tested on: 786-0 renal
# [36] = tested on: M14 melanoma
# [37] = tested on: NCI-H460 lung
# [38] = tested on: OVCAR-4 ovarian
# [39] = tested on: TK-10 renal
# [40] = tested on: KM20L2 colon
# [41] = tested on: UO-31 renal
# [42] = tested on: SK-OV-3 ovarian
# [43] = tested on: K-562 leukemia
# [44] = tested on: SW-620 colon
# [45] = tested on: COLO 205 colon
# [46] = tested on: A549 NSCLC
# [47] = tested on: RPMI-8226 leukemia
# [48] = tested on: HCT-15 colon
# [49] = tested on: CAKI-1 renal
# [50] = tested on: OVCAR-8 ovarian
# [51] = tested on: HL-60(TB) leukemia
# [52] = tested on: M19-MEL melanoma
# [53] = tested on: U251 CNS
# [54] = tested on: SR leukemia
# [55] = tested on: HOP-62 NSCLC
# [56] = tested on: HCT-116 colon
# [57] = tested on: SNB-78 CNS
# [58] = tested on: DMS 114 small cell lung
structure (smiles),measurement,setting,value
Cc1ccccc1N(CC(=O)O)S(=O)(=O)c1ccccc1,TGI,[1],> 100 µM
same,TGI,[2],> 100 µM
same,TGI,[3],> 100 µM
same,TGI,[4],> 100 µM
same,TGI,[5],> 100 µM
same,TGI,[6],> 100 µM
same,TGI,[7],> 100 µM
same,TGI,[8],> 100 µM
same,TGI,[9],> 100 µM
same,TGI,[10],> 100 µM
same,TGI,[11],> 100 µM
same,TGI,[12],> 100 µM
same,TGI,[13],> 100 µM
same,TGI,[14],> 100 µM
same,TGI,[15],> 100 µM
same,TGI,[16],> 100 µM
same,TGI,[17],> 100 µM
same,TGI,[18],> 100 µM
same,TGI,[19],> 100 µM
same,TGI,[20],> 100 µM
same,TGI,[21],> 100 µM
same,TGI,[22],> 100 µM
same,TGI,[23],> 100 µM
same,TGI,[24],> 100 µM
same,TGI,[25],> 100 µM
same,TGI,[26],> 100 µM
same,TGI,[27],> 100 µM
same,TGI,[28],> 100 µM
same,TGI,[29],> 100 µM
same,TGI,[30],> 100 µM
same,TGI,[31],> 100 µM
same,TGI,[32],> 100 µM
same,TGI,[33],> 100 µM
same,TGI,[34],> 100 µM
same,TGI,[35],> 100 µM
same,TGI,[36],> 100 µM
same,TGI,[37],> 100 µM
same,TGI,[38],> 100 µM
same,TGI,[39],> 100 µM
same,TGI,[40],> 100 µM
same,TGI,[41],> 100 µM
same,TGI,[42],> 100 µM
same,TGI,[43],> 100 µM
same,TGI,[44],> 100 µM
same,TGI,[45],> 100 µM
same,TGI,[46],> 100 µM
same,TGI,[47],> 100 µM
same,TGI,[48],> 100 µM
same,TGI,[49],> 100 µM
same,TGI,[50],> 100 µM
same,TGI,[51],> 100 µM
same,TGI,[52],> 100 µM
same,TGI,[53],> 100 µM
COC(=O)C1CCC2(C)[C@H](CCC3O[C@]32C)[C@@]1(C)CC(=O)c1ccoc1 (stereo not given in full),TGI,[1],> 100 µM
same,TGI,[2],> 100 µM
same,TGI,[4],> 100 µM
same,TGI,[5],> 100 µM
same,TGI,[7],> 100 µM
same,TGI,[8],> 100 µM
same,TGI,[9],> 100 µM
same,TGI,[10],> 100 µM
same,TGI,[11],> 100 µM
same,TGI,[12],> 100 µM
same,TGI,[13],> 100 µM
same,TGI,[14],> 100 µM
same,TGI,[17],> 100 µM
same,TGI,[18],> 100 µM
same,TGI,[19],> 100 µM
same,TGI,[54],> 100 µM
same,TGI,[20],> 100 µM
same,TGI,[21],> 100 µM
same,TGI,[55],> 100 µM
same,TGI,[22],> 100 µM
same,TGI,[23],> 100 µM
same,TGI,[24],> 100 µM
same,TGI,[25],> 100 µM
same,TGI,[56],> 100 µM
same,TGI,[57],> 100 µM
same,TGI,[26],> 100 µM
same,TGI,[27],> 100 µM
same,TGI,[28],> 100 µM
same,TGI,[29],> 100 µM
same,TGI,[30],> 100 µM
same,TGI,[31],> 100 µM
same,TGI,[32],> 100 µM
same,TGI,[58],> 100 µM
same,TGI,[34],> 100 µM
same,TGI,[35],> 100 µM
same,TGI,[36],> 100 µM
same,TGI,[37],> 100 µM
same,TGI,[38],> 100 µM
same,TGI,[39],> 100 µM
same,TGI,[40],> 100 µM
same,TGI,[41],> 100 µM
same,TGI,[42],> 100 µM
same,TGI,[43],> 100 µM
same,TGI,[44],> 100 µM
same,TGI,[45],> 100 µM
same,TGI,[46],> 100 µM
same,TGI,[47],> 100 µM
same,TGI,[48],> 100 µM
same,TGI,[49],> 100 µM
same,TGI,[50],> 100 µM
same,TGI,[51],> 100 µM
same,TGI,[52],> 100 µM
same,TGI,[53],> 100 µM
CO/C(=N\N=Cc1ccccc1)c1ccncc1,TGI,[1],> 100 µM
same,TGI,[2],> 100 µM
same,TGI,[3],> 100 µM
same,TGI,[4],> 100 µM
same,TGI,[5],> 100 µM
same,TGI,[6],> 100 µM
same,TGI,[7],> 100 µM
same,TGI,[9],> 100 µM
same,TGI,[10],> 100 µM
same,TGI,[11],> 100 µM
same,TGI,[12],> 100 µM
same,TGI,[13],> 100 µM
same,TGI,[14],> 100 µM
same,TGI,[16],> 100 µM
same,TGI,[17],> 100 µM
same,TGI,[18],> 100 µM
same,TGI,[19],> 100 µM
same,TGI,[54],> 100 µM
same,TGI,[20],> 100 µM
same,TGI,[55],> 100 µM
same,TGI,[22],> 100 µM
same,TGI,[23],> 100 µM
same,TGI,[24],> 100 µM
same,TGI,[25],> 100 µM
same,TGI,[56],> 100 µM
same,TGI,[57],> 100 µM
same,TGI,[26],> 100 µM
same,TGI,[27],> 100 µM
same,TGI,[28],> 100 µM
same,TGI,[29],> 100 µM
same,TGI,[30],97.1 µM
same,TGI,[31],> 100 µM
same,TGI,[32],> 100 µM
same,TGI,[58],> 100 µM
same,TGI,[33],> 100 µM
same,TGI,[34],> 100 µM
same,TGI,[36],> 100 µM
same,TGI,[37],> 100 µM
same,TGI,[38],> 100 µM
same,TGI,[39],> 100 µM
same,TGI,[40],> 100 µM
same,TGI,[41],> 100 µM
same,TGI,[42],> 100 µM
same,TGI,[43],> 100 µM
same,TGI,[44],> 100 µM
same,TGI,[45],> 100 µM
same,TGI,[46],> 100 µM
same,TGI,[47],> 100 µM
same,TGI,[48],> 100 µM
same,TGI,[49],> 100 µM
same,TGI,[50],> 100 µM
same,TGI,[51],> 100 µM
same,TGI,[52],> 100 µM
same,TGI,[53],> 100 µM

# From PubChem BioAssay (NCI)
